How the values were obtained:
CK2a2 = CK2a2 (Homo sapiens (Human), UniProt P19784); test: Biochemical Assay for CK2 Activity; conditions: 33P-ATP radiochemical assay; read-out: IC50 CK2 a2
Protocol: Biochemical Assay for CK2 Activity
Purified CK2a2 (NP_001887; human full-length protein, GST tagged) from insect cells (final concentration 1.2 nM) is added to freshly prepared Base Reaction Buffer containing 20 mM Hepes (pH 7.5), 10 mM MgCl2, 1 mM EGTA, 0.02% Brij35, 0.02 mg/ml BSA, 0.1 mM Na3VO4, 2 mM DTT, 1% DMSO and CK2 sub [RRRDDDSDDD] (20 μM final). Test compounds in DMSO are then added and the mixture, followed by delivery of ^33P-ATP (specific activity 0.01 μCi/μl final) to initiate the reaction. The kinase reaction is incubated for 120 min at room temperature. The entire reaction mixture is washed through onto a P81 Phosphocellulose paper and washed three times for 10 minutes in 75 mM phosphoric acid and once in methanol prior to drying and scintillation counting.

PASK = PASK (Homo sapiens (Human), UniProt Q96RG2); test: PAS Kinase FRET Assay; assay type: biochemical; conditions: TR-FRET assay; read-out: IC50 Kinase Domain
Summary of the method: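 TR-FRET read-out (665/615 nm) of ULight-peptide phosphorylation by PASK, detected with Eu-labelled anti-phospho antibody. Compound, kinase and substrate/ATP reacted 2 h at 25 °C in the dark in 50 mM HEPES, 10 mM MgCl2, 1 mM EGTA, 0.01% Tween-20, 2 mM DTT. Eleven-point dilution series made at 4× final.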

Chain of CK2a2 (P19784 whole entry): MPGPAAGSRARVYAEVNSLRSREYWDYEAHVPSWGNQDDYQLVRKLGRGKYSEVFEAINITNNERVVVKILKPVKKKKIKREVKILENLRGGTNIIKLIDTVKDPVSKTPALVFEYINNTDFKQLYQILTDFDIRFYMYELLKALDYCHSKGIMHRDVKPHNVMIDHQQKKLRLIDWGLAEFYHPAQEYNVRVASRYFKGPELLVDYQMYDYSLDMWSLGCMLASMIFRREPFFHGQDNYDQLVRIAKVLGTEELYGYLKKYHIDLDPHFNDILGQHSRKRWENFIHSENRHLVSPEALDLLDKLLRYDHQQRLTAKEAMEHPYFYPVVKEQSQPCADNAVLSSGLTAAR
Chain of PASK (Q96RG2 999-1251): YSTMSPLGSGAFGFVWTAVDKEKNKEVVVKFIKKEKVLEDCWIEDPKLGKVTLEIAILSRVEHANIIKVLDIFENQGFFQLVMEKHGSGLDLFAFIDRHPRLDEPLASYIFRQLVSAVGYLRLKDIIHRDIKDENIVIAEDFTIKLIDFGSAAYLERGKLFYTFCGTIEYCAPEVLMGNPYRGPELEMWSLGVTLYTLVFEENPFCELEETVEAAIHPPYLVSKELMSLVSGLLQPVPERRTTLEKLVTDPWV

Row | SMILES | IC50 (CK2a2) [µM] | IC50 (PASK) [µM]
1 | COc1ccc(-c2cc(=O)n3ncc(-c4ccc(F)cc4)c3[nH]2)cc1 [Example 53, 3-(4-Fluorophenyl)-5-(4-methoxyphenyl)pyrazolo[1,5-a]pyrimidin-7(4H)-one] | ≤ 10 | –
2 | Cc1nn2c(=O)cc(-c3ccc4c(c3)OCCO4)[nH]c2c1-c1ccccc1 [Example 54, 5-(2,3-Dihydrobenzo[b][1,4]dioxin-6-yl)-2-methyl-3-phenylpyrazolo[1,5-a]pyrimidin-7(4H)-one] | ≤ 10 | –
3 | Cc1nn2c(=O)cc(-c3ccc4c(c3)CCO4)[nH]c2c1-c1ccccc1 [Example 55, 5-(2,3-Dihydrobenzofuran-5-yl)-2-methyl-3-phenylpyrazolo[1,5-a]pyrimidin-7(4H)-one] | ≤ 10 | –
4 | O=c1cc(-c2ccc3[nH]nnc3c2)[nH]c2c(Cc3ccccc3)c(O)nn12 [Example 209, 5-(1H-Benzo[d][1,2,3]triazol-5-yl)-3-benzyl-2-hydroxypyrazolo[1,5-a]pyrimidin-7(4H)-one] | – | ≤ 10
5 | O=c1cc(-c2ccc3c(c2)OCO3)[nH]c2c(Cc3ccccn3)cnn12 [Example 211, 5-(Benzo[d][1,3]dioxol-5-yl)-3-(pyridin-2-ylmethyl)-pyrazolo[1,5-a]pyrimidin-7(4H)-one] | – | ≤ 10
6 | Cc1nn2c(=O)cc(-c3ccc4[nH]nnc4c3)[nH]c2c1-c1ccccc1 [Example 212, 5-(1H-Benzo[d][1,2,3]triazol-5-yl)-2-methyl-3-phenylpyrazolo[1,5-a]pyrimidin-7(4H)-one] | – | ≤ 10
7 | O=c1cc(-c2ccc3[nH]nnc3c2)[nH]c2c(-c3ccccc3)c(O)nn12 [Example 215, 5-(1H-Benzo[d][1,2,3]triazol-5-yl)-2-hydroxy-3-phenylpyrazolo[1,5-a]pyrimidin-7(4H)-one] | – | ≤ 10
8 | Cc1nn2c(=O)cc(-c3ccc4[nH]ncc4c3)[nH]c2c1-c1ccccn1 [Example 219, 5-(1H-Indazol-5-yl)-2-methyl-3-(pyridin-2-yl)pyrazolo[1,5-a]pyrimidin-7(4H)-one] | – | ≤ 10
9 | CCCNC(=O)c1c(N)nn2c(=O)cc(-c3ccc4c(c3)OCCO4)[nH]c12 [Example 226, 2-Amino-5-(2,3-dihydrobenzo[b][1,4]dioxin-6-yl)-7-oxo-N-propyl-4,7-dihydropyrazolo[1,5-a]pyrimidine-3-carboxamide] | – | ≤ 10
10 | Cc1c(-c2cc(=O)n3nc(O)c(-c4ccccn4)c3[nH]2)ccc2c1OCO2 [Example 231, 2-Hydroxy-5-(4-methylbenzo[d][1,3]dioxol-5-yl)-3-(pyridin-2-yl)pyrazolo[1,5-a]pyrimidin-7(4H)-one] | – | ≤ 10
11 | COc1c(-c2cc(=O)n3ncc(-c4ccccn4)c3[nH]2)ccc2c1OCO2 [Example 233, 5-(4-Methoxybenzo[d][1,3]dioxol-5-yl)-3-(pyridin-2-yl)pyrazolo[1,5-a]pyrimidin-7(4H)-one] | – | ≤ 10
12 | Cc1cc2[nH]nnc2cc1-c1cc(=O)n2ncc(-c3ccccn3)c2[nH]1 [Example 236, 5-(6-Methyl-1H-benzo[d][1,2,3]triazol-5-yl)-3-(pyridin-2-yl)pyrazolo[1,5-a]pyrimidin-7(4H)-one] | – | ≤ 10
13 | Cc1cc2[nH]nnc2cc1-c1cc(=O)n2nc(O)c(-c3ccccn3)c2[nH]1 [Example 239, 2-Hydroxy-5-(6-methyl-1H-benzo[d][1,2,3]triazol-5-yl)-3-(pyridin-2-yl)pyrazolo[1,5-a]pyrimidin-7(4H)-one] | – | ≤ 10
14 | Cc1c(-c2cc(=O)n3nc(N)c(-c4ccccn4)c3[nH]2)ccc2[nH]nnc12 [Example 240, 2-Amino-5-(4-methyl-1H-benzo[d][1,2,3]triazol-5-yl)-3-(pyridin-2-yl)pyrazolo[1,5-a]pyrimidin-7(4H)-one] | – | ≤ 10
15 | Cc1nn2c(=O)cc(-c3ccc4[nH]nnc4c3C)[nH]c2c1-c1ccccn1 [Example 242, 2-Methyl-5-(4-methyl-1H-benzo[d][1,2,3]triazol-5-yl)-3-(pyridin-2-yl)pyrazolo[1,5-a]pyrimidin-7(4H)-one] | – | ≤ 10
16 | COc1cc2[nH]nnc2cc1-c1cc(=O)n2nc(O)c(-c3ccccn3)c2[nH]1 [Example 244, 2-Hydroxy-5-(6-methoxy-1H-benzo[d][1,2,3]triazol-5-yl)-3-(pyridin-2-yl)pyrazolo[1,5-a]pyrimidin-7(4H)-one] | – | ≤ 10
17 | COc1c(-c2cc(=O)n3nc(O)c(-c4ccccn4)c3[nH]2)ccc2[nH]nnc12 [Example 247, 2-Hydroxy-5-(4-methoxy-1H-benzo[d][1,2,3]triazol-5-yl)-3-(pyridin-2-yl)pyrazolo[1,5-a]pyrimidin-7(4H)-one] | – | ≤ 10
18 | CC(C)Oc1c(-c2cc(=O)n3ncc(-c4ccccn4)c3[nH]2)ccc2c1OCO2 [Example 250, 5-(4-Isopropoxybenzo[d][1,3]dioxol-5-yl)-3-(pyridin-2-yl)pyrazolo[1,5-a]pyrimidin-7(4H)-one] | – | ≤ 10
19 | Cc1nn2c(=O)cc(-c3ccc4c(c3OC(C)C)OCO4)[nH]c2c1-c1ccccn1 [Example 251, 5-(4-Isopropoxybenzo[d][1,3]dioxol-5-yl)-2-methyl-3-(pyridin-2-yl)pyrazolo[1,5-a]pyrimidin-7(4H)-one] | – | ≤ 10
20 | CNC(=O)Oc1ccc(-c2cc(=O)n3nc(C)c(-c4ccccn4)c3[nH]2)cc1 [Example 252, 4-(2-Methyl-7-oxo-3-(pyridin-2-yl)-4,7-dihydropyrazolo[1,5-a]pyrimidin-5-yl)phenyl methylcarbamate] | – | ≤ 10
21 | CNC(=O)Oc1ccc(-c2cc(=O)n3ncc(-c4ccccn4)c3[nH]2)cc1 [Example 253, 4-(7-Oxo-3-(pyridin-2-yl)-4,7-dihydropyrazolo[1,5-a]pyrimidin-5-yl)phenyl methylcarbamate] | – | ≤ 10

Second part, the compound after the results:

Row | IC50 (CK2a2) [µM] | IC50 (PASK) [µM] | SMILES
22 | ≤ 10 | – | COc1ccc(-c2cc(=O)n3ncc(-c4ccccn4)c3[nH]2)cc1 [Example 56, 5-(4-Methoxyphenyl)-3-(pyridin-2-yl)pyrazolo[1,5-a]pyrimidin-7(4H)-one]
23 | – | ≤ 10 | Cc1nn2c(=O)cc(-c3ccc4[nH]nnc4c3)[nH]c2c1-c1ccc(Cl)cc1 [Example 216, 5-(1H-Benzo[d][1,2,3]triazol-5-yl)-3-(4-chlorophenyl)-2-methylpyrazolo[1,5-a]pyrimidin-7(4H)-one]
24 | – | ≤ 10 | Cc1nn2c(=O)cc(-c3ccc4[nH]ncc4c3)[nH]c2c1-c1ccc(Cl)cc1 [Example 220, 3-(4-Chlorophenyl)-5-(1H-indazol-5-yl)-2-methylpyrazolo[1,5-a]pyrimidin-7(4H)-one]
25 | – | ≤ 10 | Nc1nn2c(=O)cc(-c3ccc4[nH]ncc4c3)[nH]c2c1-c1ccc(Cl)cc1 [Example 221, 2-Amino-3-(4-chlorophenyl)-5-(1H-indazol-5-yl)pyrazolo[1,5-a]pyrimidin-7(4H)-one]
26 | – | ≤ 10 | O=c1cc(-c2ccc3[nH]ncc3c2)[nH]c2c(-c3ccc(Cl)cc3)c(O)nn12 [Example 222, 3-(4-Chlorophenyl)-2-hydroxy-5-(1H-indazol-5-yl)pyrazolo[1,5-a]pyrimidin-7(4H)-one]
27 | – | ≤ 10 | CCCNC(=O)c1c(O)nn2c(=O)cc(-c3ccc4[nH]nnc4c3)[nH]c12 [Example 228, 5-(1H-Benzo[d][1,2,3]triazol-5-yl)-2-hydroxy-7-oxo-N-propyl-4,7-dihydropyrazolo[1,5-a]pyrimidine-3-carboxamide]
28 | – | ≤ 10 | Cc1c(-c2cc(=O)n3ncc(-c4ccccn4)c3[nH]2)ccc2c1OCO2 [Example 229, 5-(4-Methylbenzo[d][1,3]dioxol-5-yl)-3-(pyridin-2-yl)pyrazolo[1,5-a]pyrimidin-7(4H)-one]
29 | – | ≤ 10 | Cc1c(-c2cc(=O)n3nc(N)c(-c4ccccn4)c3[nH]2)ccc2c1OCO2 [Example 230, 2-Amino-5-(4-methylbenzo[d][1,3]dioxol-5-yl)-3-(pyridin-2-yl)pyrazolo[1,5-a]pyrimidin-7(4H)-one]
30 | – | ≤ 10 | Cc1nn2c(=O)cc(-c3ccc4c(c3C)OCO4)[nH]c2c1-c1ccccn1 [Example 232, 2-Methyl-5-(4-methylbenzo[d][1,3]dioxol-5-yl)-3-(pyridin-2-yl)pyrazolo[1,5-a]pyrimidin-7(4H)-one]
31 | – | ≤ 10 | Cc1cc2[nH]nnc2cc1-c1cc(=O)n2nc(N)c(-c3ccccn3)c2[nH]1 [Example 238, 2-Amino-5-(6-methyl-1H-benzo[d][1,2,3]triazol-5-yl)-3-(pyridin-2-yl)pyrazolo[1,5-a]pyrimidin-7(4H)-one]
32 | – | ≤ 10 | Cc1c(-c2cc(=O)n3nc(O)c(-c4ccccn4)c3[nH]2)ccc2[nH]nnc12 [Example 241, 2-Hydroxy-5-(4-methyl-1H-benzo[d][1,2,3]triazol-5-yl)-3-(pyridin-2-yl)pyrazolo[1,5-a]pyrimidin-7(4H)-one]
33 | – | ≤ 10 | COc1c(-c2cc(=O)n3nc(N)c(-c4ccccn4)c3[nH]2)ccc2[nH]nnc12 [Example 246, 2-Amino-5-(4-methoxy-1H-benzo[d][1,2,3]triazol-5-yl)-3-(pyridin-2-yl)pyrazolo[1,5-a]pyrimidin-7(4H)-one]
34 | – | ≤ 10 | COc1c(-c2cc(=O)n3nc(C)c(-c4ccccn4)c3[nH]2)ccc2[nH]nnc12 [Example 248, 5-(4-Methoxy-1H-benzo[d][1,2,3]triazol-5-yl)-2-methyl-3-(pyridin-2-yl)pyrazolo[1,5-a]pyrimidin-7(4H)-one]
35 | – | ≤ 10 | O=c1cc(-c2ccc(-c3nnco3)cc2)[nH]c2c(-c3ccccn3)cnn12 [Example 255, 5-(4-(1,3,4-Oxadiazol-2-yl)phenyl)-3-(pyridin-2-yl)pyrazolo[1,5-a]pyrimidin-7(4H)-one]

From patent US10953012B2, “Heterocyclic compounds for the inhibition of pask” (BioEnergenix LLC, priority 2011, dated 2021)
